Literature values as cited in patent US10080720B2, “Pharmaceutical composition containing docetaxel” (GAINIA (SHANGHAI) PATENT TECHNOLOGY LTD., priority 2014, dated 2018).

CC(=O)O[C@@]12CO[C@@H]1C[C@H](O)[C@@]1(C)C(=O)[C@H](O)C3=C(C)[C@@H](OC(=O)[C@H](O)[C@@H](NC(=O)OC(C)(C)C)c4ccccc4)C[C@@](O)([C@@H](OC(=O)c4ccccc4)[C@H]21)C3(C)C [docetaxel]
solubility of docetaxel in water: 6 to 7 µg/mL
